This note sets out measurements from US20230346670A1, “Prebiotic Oral Care Compositions and Methods” (Colgate-Palmolive Company, priority 2020, published 2023).

Where “and” joins values, the source holds several entries; their conditions need not be identical. Equal values may be shown once.

Experiment [1] deals with multi-species biofilms. As to the kind of experiment: Organic acid levels in supernatant of multi-species biofilms (ion chromatography). Format: cell-based. As to conditions: >0 production, <0 consumption, n = 3. As for the experimental part: Biofilms are grown vertically on Calcium Deficient Hydroxyapatite (CAD-HA) disks (Hitemco Medical, Old Bethpage, USA) using the Amsterdam Active Adhesion model. Biofilms are allowed to establish during 24 h (37° C., 170 rpm) under microaerophilic conditions (6% O2, 7% CO2, 7% H2, 80% N2). After this 24 h, disks are rinsed 3 times a day for 3 minutes (RT, 250 rpm), for 3 consecutive days, by transferring the lid containing the disks to a new 24-well plate containing 2 mL/well of the appropriate substrate solution. As a negative control, PBS (pH 5.7) without substrate supplementation is used.
Levels of organic acids in the filter sterilized supernatant of the multi-species biofilms are measured using a 761 Compact Ion Chromatograph (Metrhohm, Switzerland) with a Metrosep Organic acids Guard/4.6 guard column. The supernatants from the substrate-treated multi-species biofilms are analyzed to gain more insight into the influence of the substrates on organic acid consumption/production.

Experiment [2] relates to human oral keratinocytes (HOK-18A). As to the kind of experiment: IL-8 levels in supernatant of keratinocytes exposed to substrate-treated biofilms. In kind it is cell-based. Conditions: biofilms treated with substrate 1 M; n = 3. As to the method: Cultures of immortalized human oral keratinocytes (HOK-18A) are grown. […] The IL-8 levels in the cellular supernatant are determined as well. RNA is converted to cDNA and relative expression of inflammatory mediator genes is determined as described above with respect to the cellular housekeeping gene β-actin.

The mark [3] stands for this setting: substrate 1 M, listed as D-(+)-trehalose.
The mark [4] stands for this setting: substrate 1 M, listed as α-D-lactose.
[5] abbreviates: substrate 1 M, listed as D-(+)-raffinose.

Regarding `OC[C@H]1O[C@H](O[C@H]2O[C@H](CO)[C@@H](O)[C@H](O)[C@H]2O)[C@H](O)[C@@H](O)[C@@H]1O` [D-trehalose, D-(+)-trehalose], in experiment [1] (substrate 1% (w/v)), the “acetate level in biofilm supernatant, mean ± SD” value (from here on “acetate level … mean ± SD”) is 303 ± 13 mg/L; the “butyrate level in biofilm supernatant, mean ± SD” value (from here on “butyrate level … mean ± SD”) is listed as 1945 ± 9 mg/L; the “formate level in biofilm supernatant, mean ± SD” value (shortened to “formate level … mean ± SD”) was 3691 ± 89 mg/L; the “lactate level in biofilm supernatant, mean ± SD” value (from here on “lactate level … mean ± SD”) is listed as -125 ± 0 mg/L. Also, the “propionate level in biofilm supernatant, mean ± SD” value (from here on “propionate level … mean ± SD”) in experiment [1] (substrate 1% (w/v)) worked out at 1962 ± 8 mg/L. Moreover, in experiment [1] (substrate 1 M), the “acetate level … mean ± SD” value is listed as 1021 ± 41^∗ mg/L; the “butyrate level … mean ± SD” value is listed as 0±0^∗ mg/L; the “formate level … mean ± SD” value is 75 ± 8^∗ mg/L; the “lactate level … mean ± SD” value is 4187 ± 200^∗ mg/L. The “propionate level … mean ± SD” value in experiment [1] (substrate 1 M) is 1577 ± 46^∗ mg/L. Further, in experiment [1] (setting [3]), the “acetate level … mean ± SD” value was determined as 1021 ± 73 mg/L; the “butyrate level … mean ± SD” value turned out to be 0 ± 0 mg/L; the “formate level … mean ± SD” value is 75 ± 8 mg/L; the “lactate level … mean ± SD” value worked out at 4187 ± 200 mg/L. Besides, the “propionate level … mean ± SD” value in experiment [1] (setting [3]) worked out at 1577 ± 46 mg/L.

For the compound `OC[C@H]1O[C@@H](O[C@H]2[C@H](O)[C@@H](O)[C@@H](O)O[C@@H]2CO)[C@H](O)[C@@H](O)[C@H]1O` [D-lactose, α-D-lactose], in experiment [1] (substrate 1% (w/v)), the “acetate level … mean ± SD” value was 367 ± 33 mg/L; the “butyrate level … mean ± SD” value is listed as 2061 ± 121 mg/L; the “formate level … mean ± SD” value is recorded as 3929 ± 253 mg/L; the “lactate level … mean ± SD” value was -125 ± 0 mg/L. Further, in experiment [1] (substrate 1% (w/v)), the “propionate level … mean ± SD” value was 2140 ± 141 mg/L. Moreover, in experiment [1] (substrate 1 M), the “acetate level … mean ± SD” value was 881 ± 73^∗ mg/L; the “butyrate level … mean ± SD” value was 0±0^∗ mg/L; the “formate level … mean ± SD” value is listed as 84 ± 9^∗ mg/L; the “lactate level … mean ± SD” value is 3791 ± 169^∗ mg/L. Moreover, the “propionate level … mean ± SD” value in experiment [1] (substrate 1 M) is reported as 1306 ± 175^∗ mg/L. Also, in experiment [1] (setting [4]), the “acetate level … mean ± SD” value amounted to 881 ± 73 mg/L; the “butyrate level … mean ± SD” value came to 0 ± 0 mg/L; the “formate level … mean ± SD” value worked out at 84 ± 9 mg/L; the “lactate level … mean ± SD” value came out at 3791 ± 169 mg/L. Moreover, the “propionate level … mean ± SD” value in experiment [1] (setting [4]) turned out to be 1306 ± 175 mg/L. Besides, the “Mean ± SD IL-8 levels in HOK-18A supernatant” value in experiment [2] is on record as “< LOD^∗”.

In the case of `OC[C@H]1O[C@H](OC[C@H]2O[C@H](O[C@]3(CO)O[C@H](CO)[C@@H](O)[C@@H]3O)[C@H](O)[C@@H](O)[C@@H]2O)[C@H](O)[C@@H](O)[C@H]1O` [D-raffinose, D-(+)-raffinose], in experiment [1] (substrate 1% (w/v)), the “acetate level … mean ± SD” value was determined as 380 ± 23 mg/L; the “butyrate level … mean ± SD” value is listed as 2003 ± 81 mg/L; the “formate level … mean ± SD” value amounted to 3748 ± 197 mg/L; the “lactate level … mean ± SD” value was -125 ± 0 mg/L. Also, the “propionate level … mean ± SD” value in experiment [1] (substrate 1% (w/v)) amounted to 2033 ± 48 mg/L. Further, in experiment [1] (substrate 1 M), the “acetate level … mean ± SD” value was 2640 ± 154^∗ mg/L; the “butyrate level … mean ± SD” value is on record as 154 ± 26^∗ mg/L; the “formate level … mean ± SD” value is 344 ± 25^∗ mg/L; the “lactate level … mean ± SD” value was 971 ± 43^∗ mg/L. For the same compound, the “propionate level … mean ± SD” value in experiment [1] (substrate 1 M) is on record as 4178 ± 105^∗ mg/L. Further, in experiment [1] (setting [5]), the “acetate level … mean ± SD” value was 2640 ± 154 mg/L; the “butyrate level … mean ± SD” value came out at 154 ± 26 mg/L; the “lactate level … mean ± SD” value stood at 971 ± 43 mg/L; the “propionate level … mean ± SD” value stood at 4178 ± 105 mg/L.

Consider `CC(=O)N[C@H]1C(O)O[C@H](CO)[C@@H](O)[C@@H]1O` (stereo partly drawn) [NADG, N-acetyl-D-glucosamine], for which, in experiment [1] (substrate 1% (w/v)), the “acetate level … mean ± SD” value is 379 ± 10 mg/L; the “butyrate level … mean ± SD” value is 2238 ± 59 mg/L; the “formate level … mean ± SD” value is recorded as 4315 ± 198 mg/L; the “lactate level … mean ± SD” value is -125 ± 0 mg/L. The “propionate level … mean ± SD” value in experiment [1] (substrate 1% (w/v)) worked out at 2205 ± 89 mg/L. Also, in experiment [1] (substrate 1 M), the “acetate level … mean ± SD” value was 3815 ± 77 mg/L; the “butyrate level … mean ± SD” value was 1255±51 mg/L and 1255 ± 51^∗ mg/L; the “formate level … mean ± SD” value turned out to be 352 ± 18 mg/L; the “lactate level … mean ± SD” value is recorded as -125 ± 0 mg/L. Further, the “propionate level … mean ± SD” value in experiment [1] (substrate 1 M) was 2750±40 mg/L and 2750 ± 40^∗ mg/L.
